Results reported in ChEMBL document CHEMBL1201862, “PubChem BioAssay data set” (2004).
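Test compounds were applied to cells in 96-well plates for 48 hours at 5 doses. GI50 = concentration required for 50% inhibition of growth.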 The source made the active and inactive calls. Rule as the data show it: active = GI50 up to about 1.1 µM and inactive = higher.

Assays:
Assay in all cases: NCI anticancer screen, dose series, 48 h
[1] = system: SK-MEL-28
[2] = system: M14
[3] = system: SK-MEL-5
[4] = system: COLO 205
[5] = system: IGROV-1
[6] = system: KM12
[7] = system: BT-549
[8] = system: HL-60
[9] = system: T47D
[10] = system: NCI-H460
[11] = system: UO-31
[12] = system: SW-620
[13] = system: HOP-62
[14] = system: RPMI-8226
[15] = system: ACHN
[16] = system: LOX IMVI
[17] = system: MCF7
[18] = system: 786-0
[19] = system: OVCAR-8
[20] = system: M19-MEL

| SMILES | GI50 [1] | GI50 [2] | GI50 [3] | GI50 [4] | GI50 [5] | GI50 [6] | GI50 [7] | GI50 [8] | GI50 [9] | GI50 [10] | GI50 [11] | GI50 [12] | GI50 [13] | GI50 [14] | GI50 [15] | GI50 [16] | GI50 [17] | GI50 [18] | GI50 [19] | GI50 [20] |
| --- | --- | --- | --- | --- | --- | --- | --- | --- | --- | --- | --- | --- | --- | --- | --- | --- | --- | --- | --- | --- |
| Cc1cc(S(=O)(=O)Nc2n[nH]c(-c3ccc(Cl)cn3)n2)c(S)cc1Cl | > 100 µM (inactive) | 76.6 µM (inactive) | 44.4 µM (inactive) | > 100 µM (inactive) | 44.4 µM (inactive) | 36.3 µM (inactive) | 32.2 µM (inactive) | 42 µM (inactive) | 31 µM (inactive) | 36.9 µM (inactive) | 29.5 µM (inactive) | 83.6 µM (inactive) | 76.6 µM (inactive) | > 100 µM (inactive) | 32.9 µM (inactive) | > 100 µM (inactive) | 74.1 µM (inactive) | 47.6 µM (inactive) | 48.8 µM (inactive) | – |
| CC1(C)CCCCC1/C=C/C(CC(O)(C(F)(F)F)C(F)(F)F)=N\Nc1ccc([N+](=O)[O-])cc1[N+](=O)[O-] (stereo unspecified) | 4.23 µM (inactive) | 4.33 µM (inactive) | 0.395 µM (active) | 1.18 µM (inactive) | 0.514 µM (active) | 2.68 µM (inactive) | 0.376 µM (active) | 1.38 µM (inactive) | 0.365 µM (active) | 0.604 µM (active) | 0.706 µM (active) | 1.86 µM (inactive) | 0.578 µM (active) | 0.33 µM (active) | 0.48 µM (active) | 1.78 µM (inactive) | 0.573 µM (active) | 1.92 µM (inactive) | 2.13 µM (inactive) | – |
| C=CC1=C(C)/C(=C/C2=NC(=C\c3[nH]c(CC4NC(=O)C(C)/C4=C\C)c(C)c3CCC(=O)O)/C(CC(=O)O)=C2C)NC1=O (stereo unspecified) | > 100 µM (inactive) | > 100 µM (inactive) | – | > 100 µM (inactive) | > 100 µM (inactive) | > 100 µM (inactive) | – | > 100 µM (inactive) | – | > 100 µM (inactive) | > 100 µM (inactive) | > 100 µM (inactive) | > 100 µM (inactive) | – | > 100 µM (inactive) | > 100 µM (inactive) | – | > 100 µM (inactive) | > 100 µM (inactive) | > 100 µM (inactive) |
| COc1ccc(NC(=O)CC(=O)NNC(Sc2ccccc2)c2cc(/N=N/c3ccc(Br)cc3)ccc2O)cc1 (stereo unspecified) | > 10 µM (inactive) | > 10 µM (inactive) | > 10 µM (inactive) | > 10 µM (inactive) | > 10 µM (inactive) | > 10 µM (inactive) | > 10 µM (inactive) | 3.61 µM (inactive) | > 10 µM (inactive) | > 10 µM (inactive) | > 10 µM (inactive) | > 10 µM (inactive) | > 10 µM (inactive) | > 10 µM (inactive) | > 10 µM (inactive) | > 10 µM (inactive) | > 10 µM (inactive) | 6.73 µM (inactive) | > 10 µM (inactive) | – |
| Cc1ccc(NC(=O)/C(=N/NC(=O)C[N+](C)(C)C)c2nc3ccccc3nc2O)cc1 | > 100 µM (inactive) | > 100 µM (inactive) | > 100 µM (inactive) | 76.9 µM (inactive) | > 100 µM (inactive) | – | – | – | – | > 100 µM (inactive) | > 100 µM (inactive) | 15.7 µM (inactive) | > 100 µM (inactive) | > 100 µM (inactive) | > 100 µM (inactive) | 51.4 µM (inactive) | – | > 100 µM (inactive) | > 100 µM (inactive) | > 100 µM (inactive) |
| CC(=O)O[C@H]1CCC2[C@@H]3CCC4NC(=O)C(C#N)C[C@]4(C)C3CC[C@@]21C (stereo partly specified) | > 10 µM (inactive) | > 10 µM (inactive) | > 10 µM (inactive) | > 10 µM (inactive) | > 10 µM (inactive) | > 10 µM (inactive) | > 10 µM (inactive) | > 10 µM (inactive) | > 10 µM (inactive) | > 10 µM (inactive) | > 10 µM (inactive) | > 10 µM (inactive) | > 10 µM (inactive) | > 10 µM (inactive) | > 10 µM (inactive) | > 10 µM (inactive) | > 10 µM (inactive) | > 10 µM (inactive) | > 10 µM (inactive) | – |
| CCOC(=O)c1cccc(NC(=O)CCl)c1 | 16.7 µM (inactive) | 8.61 µM (inactive) | 1.79 µM (inactive) | 7.74 µM (inactive) | 2.48 µM (inactive) | 7.46 µM (inactive) | 4.45 µM (inactive) | 3.94 µM (inactive) | 2.48 µM (inactive) | 1.19 µM (inactive) | 4.04 µM (inactive) | 3.32 µM (inactive) | 2.44 µM (inactive) | 3.99 µM (inactive) | 3.48 µM (inactive) | 1.34 µM (inactive) | 2.26 µM (inactive) | 1.9 µM (inactive) | 3.55 µM (inactive) | – |
| Cc1cc(C)c2c(=N)c3ccccc3n(CCCCCCO)c2n1 | 5.71 µM (inactive) | 4.22 µM (inactive) | 2.55 µM (inactive) | 1.35 µM (inactive) | 2.09 µM (inactive) | 3.94 µM (inactive) | 6.89 µM (inactive) | 2.9 µM (inactive) | 2.94 µM (inactive) | 1.69 µM (inactive) | 1.63 µM (inactive) | 4.17 µM (inactive) | 4.53 µM (inactive) | 1.38 µM (inactive) | 1.36 µM (inactive) | 1.91 µM (inactive) | 2.11 µM (inactive) | 2.47 µM (inactive) | 1.17 µM (inactive) | – |
| CC(=O)OCC1OC(Sc2ccccn2)C=CC1OC(C)=O (stereo unspecified) | > 100 µM (inactive) | > 100 µM (inactive) | > 100 µM (inactive) | > 100 µM (inactive) | > 100 µM (inactive) | > 100 µM (inactive) | – | > 100 µM (inactive) | – | – | > 100 µM (inactive) | > 100 µM (inactive) | > 100 µM (inactive) | – | > 100 µM (inactive) | > 100 µM (inactive) | – | > 100 µM (inactive) | > 100 µM (inactive) | > 100 µM (inactive) |
| Brc1ccc(N2C[N+](c3ccc(Br)cc3)=NC(c3ccccc3)=N2)cc1.[O-][Cl+3]([O-])([O-])[O-] | > 100 µM (inactive) | 58.3 µM (inactive) | 76.4 µM (inactive) | 63.4 µM (inactive) | > 100 µM (inactive) | > 100 µM (inactive) | – | 30.3 µM (inactive) | – | > 100 µM (inactive) | > 100 µM (inactive) | > 100 µM (inactive) | 74.1 µM (inactive) | 49.9 µM (inactive) | 50.2 µM (inactive) | – | – | > 100 µM (inactive) | > 100 µM (inactive) | > 100 µM (inactive) |
| CC(=O)O[C@H]1/C(=C/c2ccncc2)C[C@H]2[C@@H]3CC=C4C[C@@H](N5CCCC5)CC[C@]4(C)[C@H]3CC[C@]12C | 12.7 µM (inactive) | 9.35 µM (inactive) | 8.53 µM (inactive) | 11.4 µM (inactive) | 12.6 µM (inactive) | 11.9 µM (inactive) | 20.5 µM (inactive) | 8.38 µM (inactive) | 13.4 µM (inactive) | 10.8 µM (inactive) | 4.99 µM (inactive) | 12.2 µM (inactive) | 14.2 µM (inactive) | 6.1 µM (inactive) | 14.1 µM (inactive) | 2.32 µM (inactive) | 12.1 µM (inactive) | 3.15 µM (inactive) | 14 µM (inactive) | – |
| COc1cccc(/C=N/[N+](C)(C)C)c1O | > 10 µM (inactive) | > 10 µM (inactive) | > 10 µM (inactive) | > 10 µM (inactive) | > 10 µM (inactive) | > 10 µM (inactive) | > 10 µM (inactive) | > 10 µM (inactive) | > 10 µM (inactive) | > 10 µM (inactive) | > 10 µM (inactive) | > 10 µM (inactive) | > 10 µM (inactive) | > 10 µM (inactive) | > 10 µM (inactive) | > 10 µM (inactive) | > 10 µM (inactive) | > 10 µM (inactive) | > 10 µM (inactive) | – |
| CS(=O)(=O)c1ccc(-c2cc(-c3ccc(S(C)(=O)=O)cc3)[n+](-c3cc(-c4ccccc4)c([O-])c(-c4ccccc4)c3)c(-c3ccc(S(C)(=O)=O)cc3)c2)cc1 | > 100 µM (inactive) | > 100 µM (inactive) | – | > 100 µM (inactive) | > 100 µM (inactive) | > 100 µM (inactive) | – | – | – | > 100 µM (inactive) | > 100 µM (inactive) | > 100 µM (inactive) | > 100 µM (inactive) | > 100 µM (inactive) | > 100 µM (inactive) | > 100 µM (inactive) | – | > 100 µM (inactive) | > 100 µM (inactive) | > 100 µM (inactive) |
| N=C(N)CCNC(=O)C1CCC(N)=N1 (stereo unspecified) | 19.2 µM (inactive) | 24.7 µM (inactive) | 16.4 µM (inactive) | 5.61 µM (inactive) | 8.49 µM (inactive) | 6.79 µM (inactive) | 43.4 µM (inactive) | 37.5 µM (inactive) | 6.5 µM (inactive) | 7.55 µM (inactive) | 18.2 µM (inactive) | 22.1 µM (inactive) | 4.38 µM (inactive) | 29.9 µM (inactive) | 13.8 µM (inactive) | 15.8 µM (inactive) | 16.2 µM (inactive) | 13.1 µM (inactive) | 7.28 µM (inactive) | – |
| CC(=O)Oc1ccc(/C=C/C(=O)OCCOC(=O)/C=C/c2ccc(OC(C)=O)c(OC(C)=O)c2)cc1OC(C)=O | 14.4 µM (inactive) | 10.8 µM (inactive) | 7.36 µM (inactive) | 14.1 µM (inactive) | 2.95 µM (inactive) | 10.1 µM (inactive) | 15.7 µM (inactive) | 3.95 µM (inactive) | 13 µM (inactive) | 11.9 µM (inactive) | 4.01 µM (inactive) | 9.38 µM (inactive) | 1.26 µM (inactive) | 4.12 µM (inactive) | 4.05 µM (inactive) | 4.59 µM (inactive) | 9.64 µM (inactive) | 5.06 µM (inactive) | 4.8 µM (inactive) | – |
